Measured values taken from patent publication US20050245472A1, “Engineered rnai adenovirus silencing expression (erase) of dna reair proteins” (The Johns Hopkins University, priority 2003, published 2005).

Test system: DU 145 cells
Assay: Clonogenic survival after ionizing radiation
Format: cell-based, human
Conditions: DU 145, 10 μM, one hour before and 24 hours after irradiation, vs DMSO

Row | SMILES | DRF, ionizing radiation (DRF at 80% clonogenic cell killing) | DRF, ionizing radiation
1 | O=c1cc(N2CCOCC2)oc2c(-c3ccccc3)cccc12 [LY294002] | 1.1 | –
2 | COC[C@H]1OC(=O)c2coc3c2[C@@]1(C)C1=C(C3=O)[C@@H]2CCC(=O)[C@@]2(C)C[C@H]1OC(C)=O [Wortmannin] | – | 1.4
